From paper PMC5201116, “Bioactive Flavonoids and Catechols as Hif1 and Nrf2 Protein Stabilizers - Implications for Parkinson’s Disease” (Aging and Disease, 2016)

Key:
[1] = system: HIF1 ODD-luc reporter (SH-SY5Y cell line); experiment: HIF1 ODD-luc reporter assay; format: cell-based; conditions: Homo sapiens, SH-SY5Y
[2] = system: Neh2-luc reporter (SH-SY5Y cell line); experiment: Neh2-luc reporter assay; format: cell-based; conditions: Homo sapiens, SH-SY5Y
[3] = system: C57Bl6 mice, MPTP model of Parkinson's disease; experiment: Acute MPTP mouse model: striatal dopamine and metabolites by HPLC; format: in vivo
Description: Acute MPTP-intoxication paradigm was used to test the neuroprotective effects of NDGA using male C57Bl6 mice. In this protocol, 10-week-old C57Bl6 mice (n = 8-10 per group) were divided into four different groups consisting of 1) a control group treated with saline alone; 2) a group treated with MPTP alone; 3) a group treated with NDGA alone and; 4) group treated with NDGA in combination with MPTP. NDGA was dissolved in 1:4 ethanol:neobee oil (a derivative of coconut oil). MPTP 10 mg/kg free base was administered intraperitoneally three times a day every two hours. Animals with NDGA in combination with MPTP were administered NDGA by oral gavage with 50 and 100mg/kg/day body weight of the drug in 100 microliter volume once a day for 4 days before MPTP and once a day for 3 days after MPTP. On the day of MPTP NDGA was administered to mice 2 hours before the initiation of MPTP. Animals belonging to MPTP and control groups received the vehicle (ethanol:neobee oil, 1:4) whereas the drug alone group received respective doses of NDGA at the same frequency. All animals were sacrificed on the 7th day after MPTP.
Striatal levels of dopamine (DA) and its metabolites 3, 4-dihydroxyphenylacetic acid (DOPAC), and homovanillic acid (HVA) were measured after sonication and centrifugation in chilled 0.1 M perchloric acid (PCA, 100 µl/mg tissue) as previously described. Briefly, 15 µl supernatant was isocratically eluted through an 80 x 4.6 mm C18 column (ESA, Inc. Chelmsford, MA) with a mobile phase containing 0.1 M LiH2PO4, 0.85 mM 1-octanesulfonic acid and 10% (v/v) methanol and detected by a 2-channel Coulochem II electrochemical detector (ESA, Inc. Chelmsford, MA). Concentrations of dopamine, DOPAC and HVA are expressed as ng per mg protein. The protein concentrations of tissue homogenates were measured according to BCA assay (Pierce Biotech). For MPP+ measurement NDGA was administered at a dose of 100mg/kg/day once daily for four days followed by a dose on the 5th day 30 minutes before MPTP (30mg/kg free base). Striatal tissues were sonicated and centrifuged in 0.1 M PCA and an aliquot of supernatant was injected onto a Brownlee aquapore x 03-224 cation exchange column (Rainin, Woburn, MA). Samples were eluted isocratically with 20 mM boric acid-sodium borate buffer, pH 7.75, containing 3 mM tetrabutylammonium hydrogen sulfate, 0.25 mM 1-heptanesulfonic acid and 10% isopropanol. MPP^+ levels were detected with a fluorescence detector set by excitation at 295 nm and emission at 375nm.

[4] = NDGA+MPTP group, NDGA 100mg/kg/day oral, 7th day after MPTP

SMILES: CC(Cc1ccc(O)c(O)c1)C(C)Cc1ccc(O)c(O)c1 (stereo not drawn) [compound 28, 4,4'-(2,3-dimethylbutane-1,4-diyl)dibenzene-1,2-diol]
- EC50 [1]: ~2 µM
- fold induction at 10 µM ([1]; 3 h, at 10 µM, 3 h incubation, read-out: ODD-luc fold activation): 2
- EC50 ([2]; Neh2-luc): 2 µM
- fold induction at 10 µM ([2]; at 10 µM, 3 h incubation, read-out: Neh2-luc fold activation): 15 ± 1.8
- protection against MPTP-induced loss of striatal dopamine, DOPAC and HVA ([3]; NDGA 50mg/kg/day): not
- protection against MPTP-induced loss of striatal dopamine, DOPAC and HVA ([3]; NDGA 100mg/kg/day): protected
- Striatal DOPAC ([3]; NDGA alone group, oral gavage): 7.59 ± 1.35 ng/mg protein
- Striatal DOPAMINE ([3]; NDGA alone group, oral gavage): 88.4 ± 6.2 ng/mg protein
- Striatal HVA ([3]; NDGA alone group, oral gavage): 7.5 ± 1.66 ng/mg protein
- Striatal DOPAC [3, 4]: 6.04 ± 1.14 ng/mg protein
- Striatal DOPAMINE [3, 4]: 55.3 ± 5.7 ng/mg protein
- Striatal HVA [3, 4]: 7.4 ± 0.96 ng/mg protein
